For seven compounds, GI50 and TGI results are on record in PubChem BioAssay (NCI).

Molecules are shown by their SMILES. Where “and” joins values, the source holds several entries; their conditions need not be identical. Equal values may be shown once.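 These data come from cells grown in 96-well plates and exposed to compound for 48 hours at five concentrations. GI50: concentration for 50% inhibition of growth. TGI is the concentration that stops growth completely.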 Some results are limits rather than exact numbers.

Among the test systems are HS 578T breast; SF-295 CNS; NCI/ADR-RES ovarian; COLO 205 colon; K-562 leukemia; MDA-MB-435; SK-MEL-28 melanoma; MCF7 breast; SW-620 colon; CCRF-CEM leukemia.
Common to all, as to assay: growth of human tumour cells (NCI), 48 h

For `O=CC(Br)C(Br)c1ccccc1` (stereo not given), the GI50 is 8.81 µM in the experiment on HS 578T breast; 12.8 µM in the experiment on SF-295 CNS; 4.77 µM in the experiment on NCI/ADR-RES ovarian; 2.17 µM with COLO 205 colon; 0.963 µM in the experiment on K-562 leukemia; 1.74 µM in the experiment with MDA-MB-435. Further, the GI50 was 2.31 µM with SK-MEL-28 melanoma, 0.478 µM in the experiment on MCF7 breast, 0.776 µM in the experiment on SW-620 colon and 0.374 µM in the experiment on CCRF-CEM leukemia. For the same compound, the TGI in the experiment on HS 578T breast was 43.9 µM; in the experiment with SF-295 CNS it was 27.7 µM; in the experiment on NCI/ADR-RES ovarian, 27.7 µM; in the experiment with COLO 205 colon, 4.55 µM; in the experiment on K-562 leukemia, 6.84 µM; with MDA-MB-435, 3.63 µM. The TGI turned out to be 6.35 µM with SK-MEL-28 melanoma, 2.23 µM in the experiment with MCF7 breast, 2.33 µM with SW-620 colon and 1.94 µM in the experiment with CCRF-CEM leukemia.

Turning to `Cc1cc(Oc2cnc(=O)[nH]c2)cs1`, the TGI in the experiment on HS 578T breast, in the experiment with SF-295 CNS, in the experiment with NCI/ADR-RES ovarian, in the experiment on COLO 205 colon, in the experiment on K-562 leukemia and with MDA-MB-435 was more than 100 µM each time. Moreover, the TGI in the experiment with SK-MEL-28 melanoma, with MCF7 breast, in the experiment with SW-620 colon and with CCRF-CEM leukemia was more than 100 µM in each case.

For `CN1CCC(C(=O)Nc2n[nH]c3nc(-c4ccc(O)cc4)c(Br)cc23)CC1`, the GI50 was 1.15 µM and 0.208 µM with HS 578T breast; 3.94 µM and 3.41 µM with SF-295 CNS; 24.9 µM and > 25 µM in the experiment on NCI/ADR-RES ovarian; 1 µM and 1.3 µM in the experiment on COLO 205 colon; 1.04 µM and 0.404 µM in the experiment with K-562 leukemia; 1.57 µM and 1.45 µM in the experiment on MDA-MB-435. Further, the GI50 in the experiment on SK-MEL-28 melanoma was 1.21 µM and 2.46 µM; with MCF7 breast it was 0.557 µM and 0.724 µM; in the experiment with SW-620 colon it was 0.975 µM and 0.254 µM; in the experiment with CCRF-CEM leukemia, 0.835 µM and 0.996 µM. Besides, the TGI was more than 15.1 µM in the experiment on HS 578T breast; 20.1 µM and 22.3 µM in the experiment with SF-295 CNS; more than 25 µM in the experiment with NCI/ADR-RES ovarian; 3.7 µM and 3.04 µM in the experiment with COLO 205 colon; more than 25 µM with K-562 leukemia; 5.58 µM and 5.61 µM with MDA-MB-435. In addition, the TGI in the experiment on SK-MEL-28 melanoma was 6.15 µM and 7.56 µM; in the experiment on MCF7 breast it was more than 22 µM; in the experiment on SW-620 colon it was more than 25 µM; in the experiment on CCRF-CEM leukemia it was more than 25 µM.

For `C[n+]1c2ccccc2c(Nc2ccc(NS(=O)(=O)CCCCN=C(N)N)cc2)c2ccc(N)cc21`, the GI50 in the experiment on HS 578T breast is 2.79 µM; in the experiment with SF-295 CNS, 0.0785 µM; with NCI/ADR-RES ovarian, more than 100 µM; in the experiment with COLO 205 colon, 1.67 µM; in the experiment on K-562 leukemia, 2.6 µM; in the experiment with MDA-MB-435 it was 20.4 µM. Further, the GI50 is 11.2 µM with SK-MEL-28 melanoma, 0.0429 µM in the experiment with MCF7 breast, 4.88 µM in the experiment with SW-620 colon and 0.303 µM in the experiment on CCRF-CEM leukemia. For the same compound, the TGI in the experiment with HS 578T breast was 52.3 µM; with SF-295 CNS, more than 100 µM; in the experiment with NCI/ADR-RES ovarian, more than 100 µM; in the experiment with COLO 205 colon, more than 100 µM; in the experiment with K-562 leukemia, more than 100 µM; in the experiment with MDA-MB-435, more than 100 µM. Also, the TGI in the experiment with SK-MEL-28 melanoma is more than 72.3 µM; with MCF7 breast, more than 81.2 µM; with SW-620 colon it was more than 100 µM; in the experiment on CCRF-CEM leukemia it was more than 35.9 µM.

On to `CN1C(=O)C(=Cc2cn(Cc3ccccc3)c3ccccc23)C(=O)N(C)C1=O`, for which the GI50 with HS 578T breast is 17.8 µM; with SF-295 CNS, 0.732 µM; in the experiment with NCI/ADR-RES ovarian it was more than 70 µM; in the experiment with COLO 205 colon, 0.712 µM; in the experiment with K-562 leukemia, 5.08 µM; in the experiment with MDA-MB-435, more than 83.3 µM. Also, the GI50 in the experiment on SK-MEL-28 melanoma was more than 70.2 µM; in the experiment on MCF7 breast, 21.4 µM; in the experiment with SW-620 colon, more than 92.4 µM; in the experiment with CCRF-CEM leukemia it was more than 77.6 µM. Moreover, the TGI in the experiment on HS 578T breast is more than 81.5 µM; in the experiment on SF-295 CNS, more than 100 µM; in the experiment on NCI/ADR-RES ovarian, more than 100 µM; in the experiment on COLO 205 colon, 6.67 µM; in the experiment on K-562 leukemia, more than 100 µM; in the experiment with MDA-MB-435, more than 100 µM. Also, the TGI in the experiment on SK-MEL-28 melanoma, in the experiment with MCF7 breast, in the experiment on SW-620 colon and in the experiment on CCRF-CEM leukemia was more than 100 µM throughout.

As for `CC1(C)N=C(N)N=C(N)N1c1ccc(CCc2ccc(Cl)cc2S(=O)(=O)F)c(Cl)c1`, the GI50 with HS 578T breast was 11.1 µM; in the experiment on SF-295 CNS, 4.82 µM; in the experiment with NCI/ADR-RES ovarian, more than 100 µM; in the experiment with COLO 205 colon, 10.4 µM; with K-562 leukemia, 6.81 µM; in the experiment with MDA-MB-435 it was 4.27 µM. For the same compound, the GI50 in the experiment on SK-MEL-28 melanoma was 7.99 µM; in the experiment on MCF7 breast, 3.64 µM; in the experiment with SW-620 colon, 2.66 µM; with CCRF-CEM leukemia, 6.73 µM. For the same compound, the TGI with HS 578T breast was 41.3 µM; with SF-295 CNS, more than 100 µM; in the experiment on NCI/ADR-RES ovarian, more than 100 µM; in the experiment on COLO 205 colon it was 24 µM; in the experiment with K-562 leukemia, more than 100 µM; with MDA-MB-435, 25.4 µM. Moreover, the TGI was found to be 23.4 µM in the experiment with SK-MEL-28 melanoma, 18.9 µM in the experiment with MCF7 breast, 17.7 µM in the experiment on SW-620 colon and 44.4 µM in the experiment on CCRF-CEM leukemia.

On to `COc1c2c(c(CC=C(C)C)c3oc(=O)c(-c4ccc(O)cc4)c(O)c13)OC(C)(C)C=C2`, for which the TGI was more than 100 µM with HS 578T breast; more than 100 µM with SF-295 CNS; 93.7 µM in the experiment with NCI/ADR-RES ovarian; 40.2 µM with COLO 205 colon; more than 100 µM with K-562 leukemia; 45.7 µM with MDA-MB-435. For the same compound, the TGI with SK-MEL-28 melanoma is 73 µM; with MCF7 breast it was 54.3 µM; in the experiment on SW-620 colon, more than 100 µM; in the experiment with CCRF-CEM leukemia, 76.8 µM.
